This note sets out measurements from US12358960B2, “Selective targeting of ubiquitin- and ubiquitin-like E1-activating enzymes by structurally-stabilized peptides” (Dana-Farber Cancer Institute, Inc., priority 2019, dated 2025).

Molecules are shown by their SMILES. Entries after “also recorded” stand apart in the source; their conditions may differ. Bridge positions count the residues as written; N and C are the ends. Square brackets hold non-standard residues; d marks the D form. Peptide text beside a SMILES is read from it. R8 = C=CCCCCCC[C@@](C)(N)C(=O)O; S5 = C=CCCC[C@](C)(N)C(=O)O; Nle = CCCC[C@H](N)C(=O)O

The target in experiment [1] is T1, UBA1 (Homo sapiens, UniProt P22314).
T1 sequence (P22314 1-1058): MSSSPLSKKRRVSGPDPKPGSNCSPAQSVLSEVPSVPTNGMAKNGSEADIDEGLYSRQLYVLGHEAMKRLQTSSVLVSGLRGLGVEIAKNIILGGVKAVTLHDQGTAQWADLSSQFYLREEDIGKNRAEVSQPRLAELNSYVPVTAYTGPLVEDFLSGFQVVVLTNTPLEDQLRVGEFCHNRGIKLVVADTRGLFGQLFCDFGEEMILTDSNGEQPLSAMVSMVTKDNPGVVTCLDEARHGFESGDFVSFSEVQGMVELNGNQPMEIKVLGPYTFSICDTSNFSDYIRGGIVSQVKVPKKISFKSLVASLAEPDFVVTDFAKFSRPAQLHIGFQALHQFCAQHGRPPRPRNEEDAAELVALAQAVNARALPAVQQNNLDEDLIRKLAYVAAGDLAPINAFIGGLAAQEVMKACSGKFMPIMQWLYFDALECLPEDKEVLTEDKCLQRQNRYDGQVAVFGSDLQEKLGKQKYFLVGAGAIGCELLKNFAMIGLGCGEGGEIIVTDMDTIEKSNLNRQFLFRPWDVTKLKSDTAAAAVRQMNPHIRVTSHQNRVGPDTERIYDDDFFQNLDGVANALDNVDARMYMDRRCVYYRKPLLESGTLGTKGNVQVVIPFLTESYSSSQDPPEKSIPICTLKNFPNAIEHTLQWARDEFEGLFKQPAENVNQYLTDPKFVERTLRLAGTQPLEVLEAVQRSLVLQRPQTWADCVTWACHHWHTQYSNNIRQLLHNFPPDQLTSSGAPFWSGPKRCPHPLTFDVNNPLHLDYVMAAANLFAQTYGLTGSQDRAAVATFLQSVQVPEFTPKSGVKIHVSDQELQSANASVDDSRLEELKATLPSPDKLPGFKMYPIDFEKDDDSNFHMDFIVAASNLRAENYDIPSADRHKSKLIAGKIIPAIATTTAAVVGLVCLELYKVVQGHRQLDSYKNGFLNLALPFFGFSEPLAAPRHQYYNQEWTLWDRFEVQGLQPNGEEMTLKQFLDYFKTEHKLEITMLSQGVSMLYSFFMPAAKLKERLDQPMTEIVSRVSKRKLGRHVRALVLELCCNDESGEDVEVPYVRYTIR
The experiment in a line: Fluorescence polarization binding assay. The note with it: presence and absence of ubiquitin and ATP.
Excerpt: (§1) In vitro Binding Assays: To assess the binding and affinity of peptidomimetic macrocycles and peptidomimetic precursors to acceptor proteins, a fluorescence polarization assay (FPA) can be used, for example. The FPA technique measures the molecular orientation and mobility using polarized light and fluorescent tracer. When excited with polarized light, fluorescent tracers (e.g., FITC) attached to molecules with high apparent molecular weights (e.g., FITC-labeled peptides bound to a large protein) emit higher levels of polarized fluorescence due to their slower rates of rotation as compared to fluorescent tracers attached to smaller molecules (e.g., FITC-labeled peptides that are free in solution).
as §1, with “ligands” for “peptidomimetic macrocycles and peptidomimetic precursors”
A general note: Fluorescence polarisation rises when a labelled molecule tumbles more slowly, as on binding a larger partner.

The target of experiment [2] is T2, deubiquitinase enzyme USP7 (Homo sapiens, UniProt Q93009).
T2 construct: purchased BostonBiochem E-519
T2 sequence (Q93009 whole entry): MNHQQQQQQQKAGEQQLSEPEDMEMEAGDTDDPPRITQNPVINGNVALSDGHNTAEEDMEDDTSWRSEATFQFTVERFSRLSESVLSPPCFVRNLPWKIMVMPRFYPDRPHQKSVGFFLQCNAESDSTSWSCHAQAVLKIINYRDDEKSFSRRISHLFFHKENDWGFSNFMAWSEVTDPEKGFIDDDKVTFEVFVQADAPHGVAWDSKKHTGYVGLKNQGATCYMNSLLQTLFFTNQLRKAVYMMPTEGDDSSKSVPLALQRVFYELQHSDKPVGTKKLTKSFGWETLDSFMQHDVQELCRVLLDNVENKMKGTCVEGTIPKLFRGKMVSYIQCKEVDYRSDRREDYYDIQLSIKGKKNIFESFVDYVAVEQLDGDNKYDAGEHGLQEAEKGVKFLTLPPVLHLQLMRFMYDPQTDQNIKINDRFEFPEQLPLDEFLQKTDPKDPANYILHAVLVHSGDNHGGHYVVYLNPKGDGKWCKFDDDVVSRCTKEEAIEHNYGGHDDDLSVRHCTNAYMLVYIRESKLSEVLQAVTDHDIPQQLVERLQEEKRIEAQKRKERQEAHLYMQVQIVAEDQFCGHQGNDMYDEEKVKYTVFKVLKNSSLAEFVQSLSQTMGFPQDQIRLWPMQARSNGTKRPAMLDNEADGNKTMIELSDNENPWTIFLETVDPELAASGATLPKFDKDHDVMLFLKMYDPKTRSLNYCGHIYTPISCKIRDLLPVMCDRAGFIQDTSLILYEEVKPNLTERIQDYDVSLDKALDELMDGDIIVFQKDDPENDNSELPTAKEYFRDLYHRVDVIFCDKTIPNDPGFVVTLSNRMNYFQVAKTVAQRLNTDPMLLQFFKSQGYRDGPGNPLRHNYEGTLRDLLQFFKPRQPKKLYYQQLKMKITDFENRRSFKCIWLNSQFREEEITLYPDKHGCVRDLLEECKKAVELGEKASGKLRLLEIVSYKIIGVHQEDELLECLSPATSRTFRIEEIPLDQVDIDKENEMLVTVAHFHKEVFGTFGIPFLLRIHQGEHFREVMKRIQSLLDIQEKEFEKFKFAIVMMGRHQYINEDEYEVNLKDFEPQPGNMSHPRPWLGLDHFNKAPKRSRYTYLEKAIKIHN
Kind of experiment: Deubiquitination of p53 by USP7 in the reconstitution assay. It counts as biochemical. The note with it: peptide 30 μM. Here is the method:
In Vitro Ubiquitin Pathway Reconstitution Assay: Reactions containing recombinant His-p53 (0.1 μM), in the presence or absence of peptide (30 μM), UBA1 (0.1 μM), UBE2D (1 μM), HDM2 (1 μM), ubiquitin (1 μM) and ATP (10 mM) (all Boston Biochem K-200B), preactivated Ub-UBEA2 (3 μM) (Boston Biochem E2-802), and USP7 (1 μM) (BostonBiochem E-519), as indicated, were mixed and incubated for 2 h at 37° C. in a final volume of […] followed by denaturation by boiling in SDS-containing loading dye for 10 min at 90° C. Samples were resolved by […] gel electrophoresis and transferred to nitrocellulose membrane. Membranes were blocked with 3% milk for 1 h, incubated overnight in PBS containing 3% BSA and mouse p53 antibody (Boston Biochem K-200B) at a 1:1000 dilution, washed in PBS containing 0.1% Tween-20, and then incubated in PBS containing 3% BSA and anti-mouse secondary antibody (BioRad AAC10P) at a 1:5000 dilution for 1 hour at room temperature. Membranes were again washed in PBS containing 0.1% Tween-20 and imaged using Amersham ECL Prime (GE Life Sciences) on an Amersham Imager 680 (GE Life Sciences).

As to `CCCC[C@H](NC(C)=O)C(=O)N[C@@H](CO)C(=O)N[C@H](C(=O)N1CCC[C@H]1C(=O)N[C@]1(C)CCCCCCC=CCCC[C@@](C)(C(=O)N[C@@H](Cc2ccccc2)C(=O)N[C@@H](CCCCN)C(=O)N[C@@H](CCCNC(=N)N)C(=O)N[C@@H](CC(C)C)C(=O)N[C@@H](CCC(N)=O)C(N)=O)NC(=O)[C@H](CCCNC(=N)N)NC(=O)[C@H](CCCC)NC(=O)[C@H](CC(C)C)NC(=O)[C@H](CCCNC(=N)N)NC(=O)[C@H](CCCNC(=N)N)NC(=O)[C@H](CCCNC(=N)N)NC1=O)[C@@H](C)O` [SAH-UBE2A-11, BSTPX1RRRLBRX2FKRLQ] (Ac-[Nle]STP[R8]RRRL[Nle]R[S5]FKRLQ-NH2; staple 5-12), the “direct binding to recombinant UBA1, fluorescence polarization” value in experiment [1] is “binds to UBA1 independent of ubiquitin and ATP; also recorded: direct binding of SAH-UBE2A to recombinant UBA1”. In addition, the results for the “activity of deubiquitinase USP7 against p53” value in experiment [2] and in experiment [2] (listed as SAH-UBE2A) were “no effect on the activity of the deubiquitinase enzyme USP7 against p53” and “regardless of SAH-UBE2A presence”, respectively.
